Data set [1] relates to Human immunodeficiency virus 1. Briefly: Inhibition of recombinant HIV-1 GFP-tagged protease expressed in HEK293 cells assessed as increase in GFP-tagged protease accumulation at 10 to 30 uM after 24 hrs by flow cytometric analysis. The class given is cell-based. For orientation: In flow cytometry, cells or beads pass a laser one at a time.
A short description of data set [2]: (§1) Cytotoxicity against HEK293 cells after 24 hrs by MTT assay. It counts as cell-based. To be noted: human, HEK293 cells. Background: Formazan colour is commonly taken as a measure of viable cells.
A further data set relates to HEK293. The data set is described as §1. The class given is cell-based. To be noted: human, hek293, 24 h.
The nature of data set [3]: Inhibition of wild-type recombinant HIV-1 protease expressed in Escherichia coli using Abz-Thr-Ile-Nle-Phe(p-NO2)-Gln-Arg-NH2 as substrate by fluorescence assay. Also noted: species or system Human immunodeficiency virus 1.
For data set [4], the system named is Human immunodeficiency virus 1. Briefly: Inhibition of recombinant HIV-1 GFP-tagged protease expressed in HEK293 cells assessed as increase in GFP-tagged protease accumulation at 10 uM after 24 hrs by Western blot analysis. It counts as cell-based. In general terms: In western blotting, separated proteins are transferred to a membrane and probed.
In data set [5] the test system is Human immunodeficiency virus 1. The experiment in a line: Inhibition of recombinant HIV-1 GFP-tagged protease expressed in HEK293 cells assessed as increase in GFP-tagged protease accumulation after 24 hrs by fluorescence microscopic analysis. The class given is cell-based.
Data set [6] relates to Human immunodeficiency virus 1. The experiment in a line: Inhibition of recombinant HIV-1 GFP-tagged protease expressed in HEK293 cells assessed as increase in GFP-tagged protease accumulation at 10 uM after 24 hrs by flow cytometric analysis. It counts as cell-based.

The source made the active and inactive calls. The rule behind the calls is not given here. Some results are limits rather than exact numbers.

For `COc1ccc(S(=O)(=O)N(CC(C)C)C[C@@H](O)[C@H](Cc2ccccc2)NC(=O)c2ccc3[nH]ccc3c2)cc1OC`, the inhibition entry in data set [1] and in data set [5] was “Active” in each case. Also, the CC50 (commonly the concentration at which the toxic effect on the cells reaches its halfway point) at 24 h in data set [2] is over 200000 nM. Further, the Activity entry in the data set on HEK293 was “Dose-dependent effect”. Further, the IC50 (as a rule, the midpoint of a concentration-inhibition curve) in data set [3] amounted to 2 nM. In addition, the “Inhibition (qualitative activity call)” value in data set [4] is “Active”.

In the case of `COc1ccc(S(=O)(=O)N(CC(C)C)C[C@@H](O)CNC(=O)c2ccc3sccc3c2)cc1OC`, in data set [3], the IC50 was 15 nM.

On to `COc1ccc(S(=O)(=O)N(CC(C)C)C[C@@H](O)[C@H](Cc2ccccc2)NC(=O)c2ccc3occc3c2)cc1OC`, for which the inhibition result in data set [1] and in data set [5] was “Active” each time. In data set [2], this compound showed a CC50 at 24 h of over 200000 nM. Moreover, the Activity result in the data set with HEK293 is “Dose-dependent effect”. In data set [3], the IC50 worked out at 1.1 nM. For the same compound, the “Inhibition (qualitative activity call)” value in data set [4] was “Active”.

On to `CC(C)CN(C[C@@H](O)[C@H](Cc1ccccc1)NC(=O)O[C@H]1CO[C@H]2OCC[C@H]21)S(=O)(=O)c1ccc(N)cc1`, for which the “Inhibition (qualitative activity call)” value in data set [4] is “Active”. Also, the inhibition entry in data set [5] and in data set [6] was “Active” throughout.

As to `COc1ccc(S(=O)(=O)N(CC(C)C)C[C@@H](O)[C@H](Cc2ccccc2)NC(=O)c2ccc3sccc3c2)cc1OC`, the inhibition result in data set [1] and in data set [5] was “Active” throughout. Also, the CC50 at 24 h in data set [2] is over 200000 nM. For the same compound, in the data set with HEK293, the Activity entry is on record as “Dose-dependent effect”. Besides, in data set [3], the IC50 is 13 nM. Besides, in data set [4], the “Inhibition (qualitative activity call)” value is “Active”.

For the compound `COc1ccc(S(=O)(=O)N(CC(C)C)C[C@@H](O)CNC(=O)c2ccc3[nH]ccc3c2)cc1OC`, in data set [3], the IC50 worked out at 4000 nM.

Consider `COc1ccc(S(=O)(=O)N(CC(C)C)C[C@@H](O)CNC(=O)c2ccc3occc3c2)cc1OC`, for which, in data set [3], the IC50 stood at 1 nM.

These data come from ChEMBL document CHEMBL4043119, “Synthesis and biological evaluation in vitro and in mammalian cells of new heteroaryl carboxyamides as HIV-protease inhibitors” (Bioorg Med Chem, 2017).
